Laboratory results as given in article PMC6479915, “Novel Benzene-Based Carbamates for AChE/BChE Inhibition: Synthesis and Ligand/Structure-Oriented SAR Study” (International Journal of Molecular Sciences, 2019).

How the values were obtained:
BChE from equine serum = target: T1, BChE from equine serum (Equus caballus, UniProt P81908); assay: In vitro BChE inhibition, modified Ellman's method; type: biochemical; details: for SI (index selectivity) = IC50 (AChE)/IC50 (BChE): higher value = higher selectivity to BChE
T1 construct: BChE (from equine serum); purchased Sigma, St. Louis, MO, USA; host or cells: equine serum

AChE from electric eel = target: T2, AChE from electric eel (Electrophorus electricus, UniProt O42275); assay: biochemical; details: mean ± SD, n = three experiments; 25 °C, PBS pH 7.4, substrate ATCh 40 μM
T2 construct: purchased Sigma, St. Louis, MO, USA
T2 sequence (O42275 24-633): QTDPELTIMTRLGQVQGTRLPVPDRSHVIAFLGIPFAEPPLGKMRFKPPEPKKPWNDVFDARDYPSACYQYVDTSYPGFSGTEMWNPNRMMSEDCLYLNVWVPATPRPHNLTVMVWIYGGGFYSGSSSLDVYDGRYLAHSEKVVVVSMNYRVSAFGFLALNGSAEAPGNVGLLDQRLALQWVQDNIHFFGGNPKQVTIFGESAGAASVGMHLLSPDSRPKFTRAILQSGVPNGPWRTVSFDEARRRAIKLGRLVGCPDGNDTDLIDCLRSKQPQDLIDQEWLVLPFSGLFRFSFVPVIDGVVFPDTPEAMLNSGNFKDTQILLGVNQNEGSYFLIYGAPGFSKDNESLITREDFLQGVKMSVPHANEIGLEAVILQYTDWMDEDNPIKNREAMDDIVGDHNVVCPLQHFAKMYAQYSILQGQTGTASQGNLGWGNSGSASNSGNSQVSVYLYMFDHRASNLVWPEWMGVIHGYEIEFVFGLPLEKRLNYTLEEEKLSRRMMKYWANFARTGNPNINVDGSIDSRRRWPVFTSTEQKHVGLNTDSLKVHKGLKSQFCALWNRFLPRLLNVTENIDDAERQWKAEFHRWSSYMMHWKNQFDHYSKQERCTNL

T1 sequence (P81908 whole entry): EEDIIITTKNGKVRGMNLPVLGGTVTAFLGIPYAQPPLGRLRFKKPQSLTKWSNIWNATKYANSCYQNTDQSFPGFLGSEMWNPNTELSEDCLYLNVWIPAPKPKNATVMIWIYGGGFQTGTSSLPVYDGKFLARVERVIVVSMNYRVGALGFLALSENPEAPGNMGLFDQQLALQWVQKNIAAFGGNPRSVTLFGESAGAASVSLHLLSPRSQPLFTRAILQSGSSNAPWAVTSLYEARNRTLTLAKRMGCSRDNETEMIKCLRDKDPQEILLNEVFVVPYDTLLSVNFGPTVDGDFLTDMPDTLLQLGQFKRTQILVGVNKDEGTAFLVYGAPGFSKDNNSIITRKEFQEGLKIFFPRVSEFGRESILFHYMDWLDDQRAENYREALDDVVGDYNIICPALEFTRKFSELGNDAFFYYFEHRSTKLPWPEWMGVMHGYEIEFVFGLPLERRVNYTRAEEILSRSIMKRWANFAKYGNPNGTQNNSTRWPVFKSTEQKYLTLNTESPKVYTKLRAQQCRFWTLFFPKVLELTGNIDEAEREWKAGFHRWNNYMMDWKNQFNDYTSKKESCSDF

Structure (SMILES)	IC50 (BChE from equine serum)	SI (index selectivity) = IC50 (AChE)/IC50 (BChE) (BChE from equine serum)	IC50 (AChE from electric eel)
CCN(C(=O)OC)C(C)C(=O)c1ccccc1 (stereo not drawn) [Compound 1, Methyl ethyl(1-oxo-1-phenylpropan-2-yl)carbamate]	227.9 ± 0.9 µM	1.08	245.3 ± 0.75 µM
CCC(C(=O)c1ccccc1)N(C)C(=O)OC (stereo not drawn) [Compound 2, Methyl methyl(1-oxo-1-phenylbutan-2-yl)carbamate]	441 ± 7.54 µM	0.75	329 ± 9.72 µM
CCC(C(=O)c1ccccc1)N(CC)C(=O)OC (stereo not drawn) [Compound 3, Methyl ethyl(1-oxo-1-phenylbutan-2-yl)carbamate]	363 ± 7.41 µM	0.75	273.7 ± 2.16 µM
COC(=O)N(C)C(C)C(=O)c1cccc(C)c1 (stereo not drawn) [Compound 4, Methyl methyl(1-oxo-1-(m-tolyl)propan-2-yl)carbamate]	116 ± 2.16 µM	1.16	134 ± 2.3 µM
COC(=O)N(C)C(C)C(=O)c1cccc(Cl)c1 (stereo not drawn) [Compound 5, Methyl (1-(3-chlorophenyl)-1-oxopropan-2-yl)(methyl)carbamate]	113.6 ± 0.29 µM	2.90	330 ± 42.1 µM
COC(=O)N(C)C(C)C(=O)c1ccc(OC)cc1 (stereo not drawn) [Compound 6, Methyl (1-(4-methoxyphenyl)-1-oxopropan-2-yl)(methyl)carbamate]	186.6 ± 1.55 µM	0.79	147 ± 1.51 µM
COC(=O)N(C)C(C)C(=O)c1ccc(C)cc1 (stereo not drawn) [Compound 7, Methyl methyl(1-oxo-1-(p-tolyl)propan-2-yl)carbamate]	181 ± 12 µM	0.28	50.6 ± 0.63 µM
COC(=O)N(C)C(C)C(=O)c1ccc(Cl)cc1 (stereo not drawn) [Compound 8, Methyl (1-(4-chlorophenyl)-1-oxopropan-2-yl)(methyl)carbamate]	132 ± 4.55 µM	2.35	309 ± 6.16 µM
COC(=O)N(C)C(C)C(=O)c1ccc(Br)cc1 (stereo not drawn) [Compound 9, Methyl (1-(4-bromophenyl)-1-oxopropan-2-yl)(methyl)carbamate]	224.1 ± 2.19 µM	1.26	282.7 ± 0.71 µM
COC(=O)N(C)C(C)C(=O)c1ccc2c(c1)OCO2 (stereo not drawn) [Compound 10, Methyl (1-(benzo[d][1,3]dioxol-5-yl)-1-oxopropan-2-yl)(methyl)carbamate]	194.9 ± 1.93 µM	1.16	225 ± 2.72 µM
CCN(C(=O)Oc1ccccc1)C(C)C(=O)c1ccccc1 (stereo not drawn) [Compound 11, Phenyl ethyl(1-oxo-1-phenylpropan-2-yl)carbamate]	27.6 ± 0.55 µM	6.03	167 ± 1.75 µM
CCC(C(=O)c1ccccc1)N(C)C(=O)Oc1ccccc1 (stereo not drawn) [Compound 12, Phenyl methyl(1-oxo-1-phenylbutan-2-yl)carbamate]	53 ± 1.06 µM	3.38	179 ± 6.21 µM
CCC(C(=O)c1ccccc1)N(CC)C(=O)Oc1ccccc1 (stereo not drawn) [Compound 13, Phenyl ethyl(1-oxo-1-phenylbutan-2-yl)carbamate]	15.62 ± 0.06 µM	6.13	95.7 ± 5.37 µM
CCCC(C(=O)c1ccccc1)N(C)C(=O)Oc1ccccc1 (stereo not drawn) [Compound 14, Phenyl methyl(1-oxo-1-phenylpentan-2-yl)carbamate]	16.55 ± 0.13 µM	5.92	97.97 ± 0.36 µM
Cc1cccc(C(=O)C(C)N(C)C(=O)Oc2ccccc2)c1 (stereo not drawn) [Compound 15, Phenyl methyl(1-oxo-1-(m-tolyl)propan-2-yl)carbamate]	48.29 ± 0.31 µM	3.43	166 ± 2.75 µM
CC(C(=O)c1cccc(Cl)c1)N(C)C(=O)Oc1ccccc1 (stereo not drawn) [Compound 16, Phenyl (1-(3-chlorophenyl)-1-oxopropan-2-yl)(methyl)carbamate]	14.81 ± 0.01 µM	7.35	109 ± 1.1 µM
COc1ccc(C(=O)C(C)N(C)C(=O)Oc2ccccc2)cc1 (stereo not drawn) [Compound 17, Phenyl (1-(4-methoxyphenyl)-1-oxopropan-2-yl)(methyl)carbamate]	106 ± 1.94 µM	0.85	90.21 ± 0.73 µM
Cc1ccc(C(=O)C(C)N(C)C(=O)Oc2ccccc2)cc1 (stereo not drawn) [Compound 18, Phenyl methyl(1-oxo-1-(p-tolyl)propan-2-yl)carbamate]	87.6 ± 2.37 µM	1.58	139 ± 1.45 µM
CC(C(=O)c1ccc(Cl)cc1)N(C)C(=O)Oc1ccccc1 (stereo not drawn) [Compound 19, Phenyl (1-(4-chlorophenyl)-1-oxopropan-2-yl)(methyl)carbamate]	38.96 ± 0.28 µM	1.14	44.2 ± 2.35 µM
CC(C(=O)c1ccc(Br)cc1)N(C)C(=O)Oc1ccccc1 (stereo not drawn) [Compound 20, Phenyl (1-(4-bromophenyl)-1-oxopropan-2-yl)(methyl)carbamate]	44.1 ± 1.71 µM	1.17	51.5 ± 1.38 µM

Structure (SMILES)	IC50 (BChE from equine serum)	SI (index selectivity) = IC50 (AChE)/IC50 (BChE) (BChE from equine serum)	IC50 (AChE from electric eel)
Cc1ccc(C(=O)C(C)N(C)C(=O)Oc2ccccc2)cc1C (stereo not drawn) [Compound 21, Phenyl (1-(3,4-dimethylphenyl)-1-oxopropan-2-yl)(methyl)carbamate]	26.41 ± 0.05 µM	1.82	47.9 ± 2.09 µM
CC(C(=O)c1ccc2c(c1)OCO2)N(C)C(=O)Oc1ccccc1 (stereo not drawn) [Compound 22, Phenyl (1-(benzo[d][1,3]dioxol-5-yl)-1-oxopropan-2-yl)(methyl)carbamate]	53.6 ± 0.72 µM	1.57	84 ± 0.43 µM
CCN(C(=O)OCc1ccccc1)C(C)C(=O)c1ccccc1 (stereo not drawn) [Compound 23, Benzyl ethyl(1-oxo-1-phenylpropan-2-yl)carbamate]	11.37 ± 0.05 µM	13.93	158.4 ± 0.87 µM
CCC(C(=O)c1ccccc1)N(C)C(=O)OCc1ccccc1 (stereo not drawn) [Compound 24, Benzyl methyl(1-oxo-1-phenylbutan-2-yl)carbamate]	21.4 ± 0.26 µM	4.87	104 ± 2.91 µM
CCC(C(=O)c1ccccc1)N(CC)C(=O)OCc1ccccc1 (stereo not drawn) [Compound 25, Benzyl ethyl(1-oxo-1-phenylbutan-2-yl)carbamate]	21.3 ± 0.48 µM	5.61	119 ± 1.23 µM
CCCC(C(=O)c1ccccc1)N(C)C(=O)OCc1ccccc1 (stereo not drawn) [Compound 26, Benzyl methyl(1-oxo-1-phenylpentan-2-yl)carbamate]	16.3 ± 0.17 µM	8.26	134.7 ± 0.7 µM
Cc1cccc(C(=O)C(C)N(C)C(=O)OCc2ccccc2)c1 (stereo not drawn) [Compound 27, Benzyl methyl(1-oxo-1-(m-tolyl)propan-2-yl)carbamate]	12.5 ± 0.24 µM	6.67	83.3 ± 2.49 µM
CC(C(=O)c1cccc(Cl)c1)N(C)C(=O)OCc1ccccc1 (stereo not drawn) [Compound 28, Benzyl (1-(3-chlorophenyl)-1-oxopropan-2-yl)(methyl)carbamate]	5.51 ± 0.2 µM	15.31	84.4 ± 2.27 µM
COc1ccc(C(=O)C(C)N(C)C(=O)OCc2ccccc2)cc1 (stereo not drawn) [Compound 29, Benzyl (1-(4-methoxyphenyl)-1-oxopropan-2-yl)(methyl)carbamate]	57.39 ± 0.02 µM	1.09	62.6 ± 0.65 µM
Cc1ccc(C(=O)C(C)N(C)C(=O)OCc2ccccc2)cc1 (stereo not drawn) [Compound 30, Benzyl methyl(1-oxo-1-(p-tolyl)propan-2-yl)carbamate]	26.4 ± 0.4 µM	1.52	40.06 ± 0.01 µM
CC(C(=O)c1ccc(Cl)cc1)N(C)C(=O)OCc1ccccc1 (stereo not drawn) [Compound 31, Benzyl (1-(4-chlroophenyl)-1-oxopropan-2-yl)(methyl)carbamate]	7.02 ± 0.15 µM	7.53	52.83 ± 0.34 µM
CC(C(=O)c1ccc(Br)cc1)N(C)C(=O)OCc1ccccc1 (stereo not drawn) [Compound 32, Benzyl (1-(4-bromophenyl)-1-oxopropan-2-yl)(methyl)carbamate]	11.3 ± 0.15 µM	2.84	32 ± 0.54 µM
Cc1ccc(C(=O)C(C)N(C)C(=O)OCc2ccccc2)cc1C (stereo not drawn) [Compound 33, Benzyl (1-(3,4-dimethylphenyl)-1-oxopropan-2-yl)(methyl)carbamate]	16.9 ± 0.22 µM	4.55	76.8 ± 2.76 µM
CC(C(=O)c1ccc2c(c1)OCO2)N(C)C(=O)OCc1ccccc1 (stereo not drawn) [Compound 34, Benzyl (1-(benzo[d][1,3]dioxol-5-yl)-1-oxopropan-2-yl)(methyl)carbamate]	51.9 ± 1.18 µM	1.46	75.6 ± 1.25 µM
COC(=O)N(C)C(C)C(=O)c1cccc2ccccc12 (stereo not drawn) [Compound 35]	150 ± 7.13 µM	0.84	127 ± 1.74 µM
CC(C(=O)c1cccc2ccccc12)N(C)C(=O)Oc1ccccc1 (stereo not drawn) [Compound 36]	12.7 ± 0.19 µM	7.83	99.6 ± 5.88 µM
CC(C(=O)c1ccc(Cl)c2ccccc12)N(C)C(=O)Oc1ccccc1 (stereo not drawn) [Compound 37, Phenyl (1-(4-chloronaphthalen-1-yl)-1-oxopropan-2-yl)(methyl)carbamate]	13.5 ± 0.47 µM	2.26	30.6 ± 1.57 µM
CC(C(=O)c1ccc(Br)c2ccccc12)N(C)C(=O)Oc1ccccc1 (stereo not drawn) [Compound 38, Phenyl (1-(4-bromonaphthalen-1-yl)-1-oxopropan-2-yl)(methyl)carbamate]	13 ± 0.28 µM	4.76	61.7 ± 1.42 µM
CC(C(=O)c1cccc2ccccc12)N(C)C(=O)OCc1ccccc1 (stereo not drawn) [Compound 39, Benzyl methyl(1-(naphthalen-1-yl)-1-oxopropan-2-yl)carbamate]	18.94 ± 0.18 µM	5.55	105.2 ± 0.99 µM
